{"source": "patent US20090016989A1", "about": "“ANTIBODIES TO HUMAN SOMATOSTATIN RECEPTOR AND METHODS OF USE” (priority 2007, published 2009)", "assay_type_in_all_cases": "cell-based, human", "key": {"BON cells [1]": {"system": "BON cells", "assay": "Cell number after 48-hour treatment (Viacount)", "settings": "after 2 days of daily treatment, 5 μg/ml antibody or rabbit IgG, 100 nM octreotide", "procedure": "A serotonin ([…]) assay was performed using Serotonin EIA (Biosource, Cat# KAPL10-0900) to measure serotonin release by BON cells over a 48-hour period with or without treatment. […] After 24 hours, the BON cells were subjected to six different daily treatments (at maximum dosages) and grown in FBS-free cell growth media for 2 days in a sterile tissue culture chamber at 37° C. with 6% CO2. These six treatments were: […] The anti-hSSTR Abs (4)-(6) were antibodies produced in the experiment described in Example 1. At the end of each treatment, 1× Halt Protease Inhibitor cocktail (Pierce, Cat# 78415) was immediately added to each sample and the media was collected from each sample and used for Serotonin detection. Next, cells were dissociated from the plate using 2 ml of 1× trypsin-EDTA (Invitrogen Cat#2520) in cell growth media and incubated at 37° C. with 6% CO2 for 5 minutes. Subsequently, an additional 8 ml of cell growth media was added to neutralize trypsin-EDTA, and subjected to 1000 rpm at 4° C. in 15 ml Falcon tubes using Beckman table top centrifuge. Guava Technologies PCA-96 instrument (tabletop flow cytometer) and Viacount flex reagent (Guava Technologies, Cat# 4500-0100) were then used to determine the number of cells for the abovementioned treatments. The results were as follows: […]"}, "[2]": {"system": "shSSTR subtype 2-BON cells", "assay": "Growth suppression in tetracycline-controlled shRNA knock-down cells", "settings": "sh-hSSTR subtype 2-BON; FIG. 5", "procedure": "To validate that cell growth inhibition is caused by the anti-hSSTR antibody in a subtype specific manner, BON cells were stably transfected with plasmids carrying short hairpin RNA shSSTR subtype 2 or shSSTR subtype 5 in which the expression of the shRNAs were under the control of tetracycline. Sh-hSSTR subtype 2 and sh-hSSTR subtype 5 destabilize the target receptor's messenger RNA and, consequently, knock down the expression of the target gene.\nThe resulting maximal suppression in hours (20 hours) is designated as 100% of growth suppression. The difference measured in doubling time detected between experimental samples and untreated samples divided by the maximal suppression yields the percent growth suppression.\nshSSTR BON cells were used to test the specificity of anti-hSSTR subtype 2 and anti-hSSTR subtype 5 antibodies in suppressing BON cell growth. […] The left panels of FIG. 6a and FIG. 6B are the experimental group, while the right panels are the negative control. The Y-axis of each of FIG. 6A and FIG. 6B indicates the growth suppression outcome in %, while the X-axis of each of FIG. 6A and FIG. 6B indicates the increasing concentrations of the antibodies added in each sample. […]"}, "QGP cells": {"system": "QGP cells", "assay": "MTS growth assay in pancreatic islet carcinoma cells", "settings": "antibodies 5 μg/ml every 24 hours, octreotide 100 nM every 24 hour, FIG. 15", "procedure": "The QGP cells were maintained in F12 HAM (Invitrogen, Cat#31765035)/D-MEM (Invitrogen, Cat#10567-014) (50/50) in 10% certified fetal bovine serum (FBS) (Invitrogen, Cat#16000-044) in 10-cm tissue culture plates (BD Biosciences, Cat#353003). QGP cells were first seeded at a density of 5000 cells/well in QGP cell growth media and grown in 96-well cell culture plates (Costar, Cat#3590) and allowed to attach and grow in 100 μl cell growth media. […] QGP cells constitutively make their own somatostatin. This negative growth autocrine loop was tested by adding 10 μg/ml neutralizing anti-SST antibody (SST antibody, right hand Y-axis of FIG. 15) once every 24 hours, and a significant growth rescue (29%) was observed. […] CellTiter 96® Aqueous One Solution Cell Proliferation Assay (MTS) (Promega, Cat#G3581), was used as described above to measure the growth doubling time for all QGP cells. Daily data collected was used to calculate the doubling time in hours. QGP cell growth increase or decrease as a result of each treatment is presented as a percent change along the x-axis in FIG. 15. The percent change for QGP cells in each treatment was derived by normalizing treated cells against untreated cells (as % of change in growth) in growth doubling time."}, "BON cells [3]": {"system": "BON cells", "assay": "Guava Nexin apoptosis assay (Annexin V / 7-AAD)", "settings": "10 μg/ml rabbit IgG or antibodies, 100 nM octreotide, % of Total"}, "BON cells [4]": {"system": "BON cells", "assay": "Guava Nexin apoptosis assay (Annexin V / 7-AAD)", "settings": "10 μg/ml rabbit IgG or antibodies, 100 nM octreotide, % of Total", "procedure": "Cells were then switched to growth media without FBS and allowed to grow for another 24 hours before applying treatments. Samples were collected and counted in accordance with Guava Technologies' Viacount Flex (Cat#4500-0110) instructions. At the end of each antibody treatment, cells were dissociated from the plate using 1× trypsin-EDTA (Invitrogen Cat#2520). […] Next, phosphate buffer solution (D-PBS) (Invitrogen Cat#14190-144) (Invitrogen) was used as the exchange buffer to resuspend the cell pellet. […] Detection was achieved by using Guava PCA96 instrument and data was analysed by using Guava Nexin software module as (Cat#0500-0250). […] Following the protocol for the Guava Nexin™ assay (Guava Technologies), two different dyes were used to stain for cells undergoing apoptosis: 7-AAD stains for dead and late apoptosis cells (upper right quadrant of each graph in FIG. 10), and Annexin V stains for cells undergoing apoptosis from the early stage (lower right quadrant of each graph in FIG. 10). […] Once every 24 hours for 72 hours (FIGS. 10B, 10C and 10D), cells were collected and tested for apoptosis status using the Guava Nexin™ assay (Guava Technologies).", "remark": "listed apart in the source"}}, "data": [{"smiles": "C[C@@H](O)[C@@H]1NC(=O)[C@H](CCCCN)NC(=O)[C@@H](Cc2c[nH]c3ccccc23)NC(=O)[C@H](Cc2ccccc2)NC(=O)[C@@H](NC(=O)[C@H](N)Cc2ccccc2)CSSC[C@@H](C(=O)N[C@H](CO)[C@@H](C)O)NC1=O", "note": "[octreotide]", "values": [{"measurement": "number of cells", "setting": "BON cells [1]", "result": 7, "unit": "million cells"}, {"measurement": "growth doubling time under octreotide compared to BON cells", "setting": "[2]", "result": "did not change"}, {"measurement": "QGP growth suppression", "setting": "QGP cells", "result": "sensitive"}, {"measurement": "Live, healthy cells (Lower Left Quadrant)", "setting": "BON cells [3]; 24 hours after treatment", "result": 95.7, "unit": "%"}, {"measurement": "Late apoptotic cells (Upper Right Quadrant)", "setting": "BON cells [3]; 48 hours after treatment", "result": 10.0, "unit": "%"}, {"measurement": "Live, healthy cells (Lower Left Quadrant)", "setting": "BON cells [3]; 48 hours after treatment", "result": 85.4, "unit": "%"}, {"measurement": "Live, healthy cells (Lower Left Quadrant)", "setting": "BON cells [3]; 72 hours after treatment", "result": 72.5, "unit": "%"}, {"measurement": "7-AAD+", "setting": "BON cells [4]; 24 hours after treatment", "result": 1.1, "unit": "%"}, {"measurement": "Annexin V+", "setting": "BON cells [4]; 24 hours after treatment", "result": 4.3, "unit": "%"}, {"measurement": "Early apoptotic cells (Lower Right Quadrant)", "setting": "BON cells [4]; 24 hours after treatment", "result": 3.3, "unit": "%"}, {"measurement": "Late apoptotic cells (Upper Right Quadrant)", "setting": "BON cells [4]; 24 hours after treatment", "result": 1.0, "unit": "%"}, {"measurement": "Nuclear Debris (Upper Left Quadrant)", "setting": "BON cells [4]; 24 hours after treatment", "result": 0.1, "unit": "%"}, {"measurement": "7-AAD+", "setting": "BON cells [4]; 48 hours after treatment", "result": 10.9, "unit": "%"}, {"measurement": "Annexin V+", "setting": "BON cells [4]; 48 hours after treatment", "result": 13.7, "unit": "%"}, {"measurement": "Early apoptotic cells (Lower Right Quadrant)", "setting": "BON cells [4]; 48 hours after treatment", "result": 3.8, "unit": "%"}, {"measurement": "Nuclear Debris (Upper Left Quadrant)", "setting": "BON cells [4]; 48 hours after treatment", "result": 1.0, "unit": "%"}, {"measurement": "7-AAD+", "setting": "BON cells [4]; 72 hours after treatment", "result": 19.8, "unit": "%"}, {"measurement": "Annexin V+", "setting": "BON cells [4]; 72 hours after treatment", "result": 26.9, "unit": "%"}, {"measurement": "Early apoptotic cells (Lower Right Quadrant)", "setting": "BON cells [4]; 72 hours after treatment", "result": 7.7, "unit": "%"}, {"measurement": "Late apoptotic cells (Upper Right Quadrant)", "setting": "BON cells [4]; 72 hours after treatment", "result": 19.2, "unit": "%"}, {"measurement": "Nuclear Debris (Upper Left Quadrant)", "setting": "BON cells [4]; 72 hours after treatment", "result": 0.6, "unit": "%"}]}]}
